# Results reported in patent publication US10597388B2, “Pyridazinone herbicides” (FMC CORPORATION, priority 2014, dated 2020).
# How the values were obtained:
# Test in all cases: Test E greenhouse herbicide test, pre- and postemergence
# Assay type in all cases: in vivo
# Conditions in all cases: Preemergence
# [1] = tested on: barnyardgrass (Echinochloa crus-galli)
# Procedure, shortened: (§1)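 Seeds were sown in silt loam and sprayed preemergence with compound in a non-phytotoxic solvent mix containing surfactant; for postemergence, plants at 2 to 18 cm (1- to 4-leaf stage) in peat-based potting medium were sprayed with the same formulation. After 14 to 21 d in a greenhouse, injury was rated visually against controls (0–100).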
# [2] = tested on: beggarticks (hairy beggarticks, Bidens pilosa)
# Procedure, shortened: as §1
# corn (Zea mays) = tested on: corn (Zea mays)
# Procedure, shortened: as §1
# [3] = tested on: dayflower (Virginia (VA) dayflower, Commelina virginica)
# Procedure, shortened: as §1
# [4] = tested on: foxtail, giant (giant foxtail, Setaria faberii)
# Procedure, shortened: as §1
# [5] = tested on: foxtail, green (green foxtail, Setaria viridis)
# Procedure, shortened: as §1
# [6] = tested on: horseweed (Conyza canadensis)
# Procedure, shortened: as §1
# [7] = tested on: johnsongrass (Sorghum halepense)
# Procedure, shortened: as §1
# [8] = tested on: lambsquarters (Chenopodium album)
# Procedure, shortened: as §1
# [9] = tested on: nutsedge, yellow (yellow nutsedge, Cyperus esculentus)
# Procedure, shortened: as §1
# [10] = tested on: panicum, fall (fall panicum, Panicum dichotomiflorum)
# Procedure, shortened: as §1
# [11] = tested on: pigweed, palmer (palmer pigweed, Amaranthus palmeri)
# Procedure, shortened: as §1
# [12] = tested on: ragweed (common ragweed, Ambrosia elatior)
# Procedure, shortened: as §1
# [13] = tested on: sandbur (southem sandbur, Cenchrus echinatus)
# Procedure, shortened: as §1
# soybean (Glycine max) = tested on: soybean (Glycine max)
# Procedure, shortened: as §1
# [14] = tested on: velvetleaf (Abutilon theophrasti)
# Procedure, shortened: as §1
# [15] = 62 g ai/ha, scale 0 to 100 (0 no effect, 100 complete control)
# [16] = 31 g ai/ha, scale 0 to 100, 0 no effect, 100 complete control
# [17] = 125 g ai/ha, visual, scale 0 no effect to 100 complete control
# [18] = 125 g ai/ha, scale 0 to 100 (0 no effect, 100 complete control)
compound,measurement,setting,value
Cc1cc(C)c2ccccc2c1-c1c(O)c(C)nn(C)c1=O [Compound 21],"Plant response rating, Barnyardgrass",[1]; [15],70
same,"Plant response rating, Barnyardgrass",[1]; [16],40
same,"Plant response rating, Barnyardgrass",[1]; [17],90
same,"Plant response rating, Beggarticks",[2]; [15],100
same,"Plant response rating, Beggarticks",[2]; [16],100
same,"Plant response rating, Beggarticks",[2]; [17],100
same,"Plant response rating, Corn",corn (Zea mays); [15],0
same,"Plant response rating, Corn",corn (Zea mays); [16],0
same,"Plant response rating, Corn",corn (Zea mays); [17],30
same,"Plant response rating, Dayflower, VA",[3]; [15],60
same,"Plant response rating, Dayflower, VA",[3]; [16],80
same,"Plant response rating, Dayflower, VA",[3]; [17],80
same,"Plant response rating, Foxtail, Giant",[4]; [15],98
same,"Plant response rating, Foxtail, Giant",[4]; [16],95
same,"Plant response rating, Foxtail, Giant",[4]; [17],100
same,"Plant response rating, Foxtail, Green",[5]; [15],100
same,"Plant response rating, Foxtail, Green",[5]; [16],95
same,"Plant response rating, Foxtail, Green",[5]; [17],100
same,"Plant response rating, Horseweed",[6]; [15],100
same,"Plant response rating, Horseweed",[6]; [16],100
same,"Plant response rating, Horseweed",[6]; [17],100
same,"Plant response rating, Johnsongrass",[7]; [15],20
same,"Plant response rating, Johnsongrass",[7]; [17],60
same,"Plant response rating, Lambsquarters",[8]; [15],100
same,"Plant response rating, Lambsquarters",[8]; [16],100
same,"Plant response rating, Lambsquarters",[8]; [17],100
same,"Plant response rating, Nutsedge, Yellow",[9]; [15],75
same,"Plant response rating, Nutsedge, Yellow",[9]; [18],80
same,"Plant response rating, Nutsedge, Yellow",[9]; [16],0
same,"Plant response rating, Panicum, Fall",[10]; [15],100
same,"Plant response rating, Panicum, Fall",[10]; [18],100
same,"Plant response rating, Panicum, Fall",[10]; [16],100
same,"Plant response rating, Pigweed, Palmer",[11]; [15],70
same,"Plant response rating, Pigweed, Palmer",[11]; [18],98
same,"Plant response rating, Pigweed, Palmer",[11]; [16],65
same,"Plant response rating, Ragweed",[12]; [15],98
same,"Plant response rating, Ragweed",[12]; [18],100
same,"Plant response rating, Ragweed",[12]; [16],95
same,"Plant response rating, Sandbur",[13]; [15],80
same,"Plant response rating, Sandbur",[13]; [18],90
same,"Plant response rating, Sandbur",[13]; [16],80
same,"Plant response rating, Soybean",soybean (Glycine max); [15],35
same,"Plant response rating, Soybean",soybean (Glycine max); [18],35
same,"Plant response rating, Soybean",soybean (Glycine max); [16],35
same,"Plant response rating, Velvetleaf",[14]; [15],90
same,"Plant response rating, Velvetleaf",[14]; [18],90
same,"Plant response rating, Velvetleaf",[14]; [16],80
